test system: HCV replicon cells; assay: Cell-based HCV replicon assay (replicon RNA by Taqman real time PCR); details: HCV replicon 1b, cells harvested on day 3; read-out: 1b EC50

| SMILES | EC50 |
| --- | --- |
| C[C@@]1(N=[N+]=[N-])[C@@H]2OP(=O)(OC3CCCC3)OC[C@H]2O[C@H]1n1ccc(=O)[nH]c1=O (single isomer, unassigned) [Compound 561] | 3.1 µM |

same assay, conditions: Hepatitis C virus, 72 h, HCV replicon 1b, cells harvested on day 3; read-out: 1b EC50

| SMILES | EC50 |
| --- | --- |
| C[C@@]1(N=[N+]=[N-])[C@H](O)[C@@H](CO)O[C@H]1n1cnc2c(NC3CC3)nc(N)nc21 [Compound 138] | > 100 µM |
| C[C@@]1(N=[N+]=[N-])[C@H](O)[C@@H](CO)O[C@H]1n1cnc2c(=O)[nH]c(N)nc21 [Compound 17] | > 100 µM |
| CCOc1nc(N)nc2c1ncn2[C@@H]1O[C@@H]2COP(=O)(OC(C)C)O[C@H]2[C@@]1(C)N=[N+]=[N-] (some centres unmarked) [Compound 23] | 69 µM |
| CCCOP1(=O)OC[C@H]2O[C@@H](n3ccc(N)nc3=O)[C@](C)(N=[N+]=[N-])[C@@H]2O1 (some centres unmarked) [Compound 33] | > 100 µM |

same assay, conditions: Hepatitis C virus, 72 h, read-out: 1b EC50

| SMILES | EC50 |
| --- | --- |
| CCCCOC(=O)[C@H](C)NP(=O)(OC[C@H]1O[C@@H](n2cnc3c(OC)nc(N)nc32)[C@](C)(N=[N+]=[N-])C1O)Oc1cccc2ccccc12 (single isomer, unassigned) [Compound 297] | 0.1 µM |
| CCCOC(=O)[C@H](C)NP(=O)(OC[C@H]1O[C@@H](n2ccc(=O)[nH]c2=O)[C@](C)(N=[N+]=[N-])[C@@H]1O)Oc1cccc2ccccc12 (some centres unmarked) [Compound 374] | 5.6 µM |
| C[C@H](NP(=O)(OC[C@H]1O[C@@H](n2ccc(N)nc2=O)[C@](C)(N=[N+]=[N-])[C@@H]1O)Oc1ccccc1)C(=O)OCC(C)(C)C (some centres unmarked) [Compound 14] | 32 µM |
| COc1nc(N)nc2c1ncn2[C@@H]1O[C@H](COP(=O)(N[C@@H](C)C(=O)OC(C)C)Oc2ccc(F)cc2)[C@@H](O)[C@@]1(C)N=[N+]=[N-] (single isomer, unassigned) [Compound 269] | 0.7 µM |
| COc1nc(N)nc2c1ncn2[C@@H]1O[C@H](COP(=O)(N[C@@H](C)C(=O)OCC(C)(C)C)Oc2ccccc2)[C@@H](O)[C@@]1(C)N=[N+]=[N-] (some centres unmarked) [Compound 55] | 1.1 µM |
| CCOC(=O)[C@H](C)NP(=O)(OC[C@H]1O[C@@H](n2cnc3c(OCC)nc(N)nc32)[C@](C)(N=[N+]=[N-])[C@@H]1O)Oc1ccc(Cl)cc1 (single isomer, unassigned) [Compound 352] | 1.1 µM |
| COc1nc(N)nc2c1ncn2[C@@H]1O[C@H](COP(=O)(N[C@@H](C)C(=O)OCC(C)C)Oc2ccc(Cl)cc2)[C@@H](O)[C@@]1(C)N=[N+]=[N-] (single isomer, unassigned) [Compound 295] | 0.2 µM |
| C[C@H](NP(=O)(OC[C@H]1O[C@@H](n2ccc(=O)[nH]c2=O)[C@](C)(N=[N+]=[N-])[C@@H]1O)Oc1ccc2c(c1)OCO2)C(=O)OCc1ccccc1 (some centres unmarked) [Compound 305] | 1.2 µM |
| CCOC(=O)c1cccc(OP(=O)(N[C@@H](C)C(=O)OC)OC[C@H]2O[C@@H](n3ccc(=O)[nH]c3=O)[C@](C)(N=[N+]=[N-])[C@@H]2O)c1 (some centres unmarked) [Compound 222] | 0.01 µM |
| CCCCOC(=O)[C@H](C)NP(=O)(OC[C@H]1O[C@@H](n2ccc(=O)[nH]c2=O)[C@](C)(N=[N+]=[N-])[C@@H]1O)Oc1ccccc1 (some centres unmarked) [Compound 26] | 0.6 µM |
| C[C@H](NP(=O)(OC[C@H]1O[C@@H](n2ccc(N)nc2=O)[C@](C)(N=[N+]=[N-])[C@@H]1O)Oc1ccccc1)C(=O)OCc1ccccc1 (single isomer, unassigned) [Compound 191] | 25 µM |
| COC(=O)[C@H](C)NP(=O)(OC[C@H]1O[C@@H](n2cnc3c(OC)nc(N)nc32)[C@](C)(N=[N+]=[N-])[C@@H]1O)Oc1ccccc1Cl (some centres unmarked) [Compound 77] | 0.6 µM |
| COC(=O)[C@H](C)NP(=O)(OC[C@H]1O[C@@H](n2cnc3c(OC)nc(N)nc32)[C@](C)(N=[N+]=[N-])[C@@H]1O)Oc1cccc2ccccc12 (some centres unmarked) [Compound 57] | 0.4 µM |
| CC(=O)CCc1ccc(OP(=O)(N[C@@H](C)C(=O)OC(C)C)OC[C@H]2O[C@@H](n3ccc(=O)[nH]c3=O)[C@](C)(N=[N+]=[N-])[C@@H]2O)cc1 (some centres unmarked) [Compound 178] | 3 µM |
| CC(C)COC(=O)[C@H](C)NP(=O)(OC[C@H]1O[C@@H](n2ccc(N)nc2=O)[C@](C)(N=[N+]=[N-])[C@@H]1O)Oc1ccccc1 (some centres unmarked) [Compound 48] | 3.1 µM |
| CCOc1nc(N)nc2c1ncn2[C@@H]1O[C@H](COP(=O)(N[C@@H](C)C(=O)OC)Oc2ccccc2)[C@@H](O)[C@@]1(C)N=[N+]=[N-] (single isomer, unassigned) [Compound 142] | 0.5 µM |
| CCCCOC(=O)[C@H](C)NP(=O)(OC[C@H]1O[C@@H](n2cnc3c(OCC)nc(N)nc32)[C@](C)(N=[N+]=[N-])[C@@H]1O)Oc1ccc(Cl)c(Cl)c1 (some centres unmarked) [Compound 370] | 10 µM |
| CCOC(=O)[C@H](C)NP(=O)(OC[C@H]1O[C@@H](n2cnc3c(OCC)nc(N)nc32)[C@](C)(N=[N+]=[N-])[C@@H]1O)Oc1ccccc1 (some centres unmarked) [Compound 10] | 0.9 µM |
| C[C@H](NP(=O)(OC[C@H]1O[C@@H](n2ccc(=O)[nH]c2=O)[C@](C)(N=[N+]=[N-])[C@@H]1O)Oc1ccccc1)C(=O)OCc1ccccc1 (some centres unmarked) [Compound 299] | 5.6 µM |
| CC(C)OC(=O)[C@H](C)NP(=O)(OC[C@H]1O[C@@H](n2ccc(N)nc2=O)[C@](C)(N=[N+]=[N-])[C@@H]1O)Oc1ccc(F)cc1 (some centres unmarked) [Compound 196] | 39 µM |
| CCOP1(=O)OC[C@H]2O[C@@H](n3ccc(=O)[nH]c3=O)[C@](C)(N=[N+]=[N-])[C@@H]2O1 (some centres unmarked) [Compound 567] | > 100 µM |
| CCOC(=O)[C@H](C)NP(=O)(OC[C@H]1O[C@@H](n2ccc(N)nc2=O)[C@](C)(N=[N+]=[N-])[C@@H]1O)Oc1ccc(Cl)cc1 (some centres unmarked) [Compound 198] | 0.6 µM |
| CCOC(=O)c1ccccc1OP(=O)(N[C@@H](C)C(=O)OC)OC[C@H]1O[C@@H](n2cnc3c(OC)nc(N)nc32)[C@](C)(N=[N+]=[N-])[C@@H]1O (some centres unmarked) [Compound 224] | 3.3 µM |
| COC(=O)[C@H](C)NP(=O)(OC[C@H]1O[C@@H](n2cnc3c(N4CCC4)nc(N)nc32)[C@](C)(N=[N+]=[N-])[C@@H]1O)Oc1ccccc1 (some centres unmarked) [Compound 390] | 3.4 µM |
| CCOc1nc(N)nc2c1ncn2[C@@H]1O[C@H](COP(=O)(N[C@@H](C)C(=O)OC(C)C)Oc2ccccc2Cl)[C@@H](O)[C@@]1(C)N=[N+]=[N-] (some centres unmarked) [Compound 59] | 10 µM |
| COC(=O)[C@H](C)NP(=O)(OC[C@H]1O[C@@H](n2cnc3c(NC4CC4)nc(N)nc32)[C@](C)(N=[N+]=[N-])[C@@H]1O)Oc1ccccc1 (some centres unmarked) [Compound 386] | 5.3 µM |
| CC(C)OC(=O)[C@H](C)NP(=O)(OC[C@H]1O[C@@H](n2ccc(=O)[nH]c2=O)[C@](C)(N=[N+]=[N-])[C@@H]1O)Oc1ccc2c(c1)OCO2 (some centres unmarked) [Compound 42] | 25 µM |

same assay, conditions: read-out: 1b EC50

| SMILES | EC50 |
| --- | --- |
| CC(C)OC(=O)[C@H](C)NP(=O)(OC[C@H]1O[C@@H](n2ccc(=O)[nH]c2=O)[C@](C)(N=[N+]=[N-])[C@@H]1O)Oc1ccc2c(c1)OCO2 (some centres unmarked) [Compound 234] | 25 µM |
| CC(C)OC(=O)[C@H](C)NP(=O)(OC[C@H]1O[C@@H](n2ccc(N)nc2=O)[C@](C)(N=[N+]=[N-])[C@@H]1O)Oc1ccccc1Cl (single isomer, unassigned) [Compound 204] | 1.3 µM |
| COc1nc(N)nc2c1ncn2[C@@H]1O[C@H](COP(=O)(N[C@@H](C)C(=O)OCC(C)(C)C)Oc2ccccc2)C(O)[C@@]1(C)N=[N+]=[N-] (single isomer, unassigned) [Compound 292] | 0.4 µM |
| CCOc1nc(N)nc2c1ncn2[C@@H]1O[C@H](COP(=O)(N[C@@H](C)C(=O)OC(C)C)Oc2ccc(F)cc2)[C@@H](O)[C@@]1(C)N=[N+]=[N-] (single isomer, unassigned) [Compound 364] | 6.4 µM |
| COc1nc(N)nc2c1ncn2[C@@H]1O[C@H](COP(=O)(N[C@@H](C)C(=O)OC(C)C)Oc2ccc(Cl)cc2)[C@@H](O)[C@@]1(C)N=[N+]=[N-] (single isomer, unassigned) [Compound 294] | 3.4 µM |
| COC(=O)[C@H](C)NP(=O)(OC[C@H]1O[C@@H](n2cnc3c(OC)nc(N)nc32)[C@](C)(N=[N+]=[N-])[C@@H]1O)Oc1ccccc1Cl (single isomer, unassigned) [Compound 257] | 0.7 µM |
| CCOC(=O)c1ccccc1OP(=O)(N[C@@H](C)C(=O)OC)OC[C@H]1O[C@@H](n2ccc(=O)[nH]c2=O)[C@](C)(N=[N+]=[N-])[C@@H]1O (single isomer, unassigned) [Compound 225] | 2.8 µM |
| CCOC(=O)c1ccccc1OP(=O)(N[C@@H](C)C(=O)OC)OC[C@H]1O[C@@H](n2ccc(=O)[nH]c2=O)[C@](C)(N=[N+]=[N-])[C@@H]1O (single isomer, unassigned) [Compound 226] | 26 µM |
| C[C@H](NP(=O)(OC[C@H]1O[C@@H](n2ccc(N)nc2=O)[C@](C)(N=[N+]=[N-])[C@@H]1O)Oc1ccccc1Cl)C(=O)OCC(C)(C)C (single isomer, unassigned) [Compound 181] | 3.8 µM |
| C[C@H](NP(=O)(OC[C@H]1O[C@@H](n2ccc(N)nc2=O)[C@](C)(N=[N+]=[N-])[C@@H]1O)Oc1ccccc1)C(=O)OC1CCCCC1 (single isomer, unassigned) [Compound 338] | 26 µM |
| CCOC(=O)[C@H](C)NP(=O)(OC[C@H]1O[C@@H](n2cnc3c(OCC)nc(N)nc32)[C@](C)(N=[N+]=[N-])[C@@H]1O)Oc1ccc(F)cc1 (single isomer, unassigned) [Compound 176] | 0.3 µM |
| COc1nc(N)nc2c1ncn2[C@@H]1O[C@H](COP(=O)(N[C@@H](C)C(=O)OCC(C)C)Oc2ccccc2)C(O)[C@@]1(C)N=[N+]=[N-] (single isomer, unassigned) [Compound 277] | 2.7 µM |
| COc1nc(N)nc2c1ncn2[C@@H]1O[C@H](COP(=O)(N[C@@H](C)C(=O)OCC(C)(C)C)Oc2ccccc2)C(O)[C@@]1(C)N=[N+]=[N-] (single isomer, unassigned) [Compound 291] | 2.4 µM |
| COc1nc(N)nc2c1ncn2[C@@H]1O[C@H](COP(=O)(N[C@@H](C)C(=O)OC2CCCCC2)Oc2ccccc2)[C@@H](O)[C@@]1(C)N=[N+]=[N-] (single isomer, unassigned) [Compound 274] | 8.7 µM |
| CCOC(=O)[C@H](C)NP(=O)(OC[C@H]1O[C@@H](n2ccc(=O)[nH]c2=O)[C@](C)(N=[N+]=[N-])[C@@H]1O)Oc1ccccc1 (single isomer, unassigned) [Compound 151] | 5.1 µM |

Source: US9156872B2, “2′-azido substituted nucleoside derivatives and methods of use thereof for the treatment of viral diseases” (priority 2011, dated 2015)
